Structures are written as SMILES.

Series [1] concerns mice with PE infusion. Briefly: Chronic phenylephrine (PE) infusion model of cardiac hypertrophy. The format is in vivo, mouse. The note with it: PE 75 mg/kg/day minipump, JQ1 from 1.5 days after installation. The source says:
All mice were C57Bl/6J littermate males aged 10-12 weeks. For TAC, mice were anesthetized with ketamine/xylazine, mechanically ventilated (Harvard apparatus), and subject to thoracotomy. The aortic arch was constricted between the left and right carotid arteries using a 7.0 silk suture and a 27-gauge needle as previously described (Hu et al., 2003). In our hands, this protocol a consistent peak pressure gradient of approximately 50 mmHg across the constricted portion of the aorta. For PE infusion, mice were anesthetized using continuous 1% inhalational isofluorane. Mini-osmotic pumps (Alzet 2004, Durect Corp.) were filled with phenylephrine hydrochloride (PE, Sigma) or vehicle (normal saline) and implanted subcutaneously on the dorsal aspect of the mouse. PE was infused at a dose of 75 mg/kg/day for 17 days. Injections of JQ1 or vehicle were begun 1.5 days postoperatively.
For transthoracic echocardiography, mice were anesthetized with 1% inhalational isofluorane and imaged using the Vevo 770 High Resolution Imaging System (Visual Sonics, Inc.) and the RMV-707B 30 MHz probe. Measurements were obtained from M-mode sampling and integrated EKV images taken in the LV short axis at the mid-papillary level (Haldar et al., 2010). […] Conscious tail-vein systolic blood pressure was measured using the BP2000 Blood Pressure Analysis System (Visitech Systems, Inc.) as recommended by the manufacturer. […]

Series [2] concerns the target T1, BRD4 (Rattus norvegicus, UniProt A0A8I6A216).
T1 construct: endogenous in cells; host or cells: NRVM (primary neonatal rat ventricular cardiomyocytes)
The series is described as follows: ChIP-qPCR of BRD4 and Pol II at the IL6 proximal promoter in NRVM. To be noted: JQ1 500 nM, PE 100 μM, 90 min. It counts as cell-based. As for the experimental part: NRVM were plated in 15 cm dishes at 5×10^6 cells/dish. Chromatin pooled from approximately 15×10^6 NRVM were used for each immunoprecipitation. After indicated treatments, NRVM were fixed directly on the dish with 1% formaldehyde for 10 minutes followed by quenching with 0.125M glycine for 5 minutes. Chromatin was extracted, followed by shearing on a BioRuptor (Diagenode; total 16 cycles, hi-power, 30 sec on/off). The sonicated chromatin was immunoprecipitated with 5 μg of antibody bound to Dynabeads (Invitrogen) followed by extensive washing and elution. Immunoprecipitate and input chromatin samples were then reverse cross-linked followed by purification of genomic DNA. Target and non-target regions of genomic DNA were amplified by qRT-PCR in both the immunoprecipitates and input samples using Sybrgreen chemistry. Enrichment data were analyzed by calculating the immunoprecipitated DNA percentage of input DNA for each sample as previously described (Ott et al., 2012). Antibodies used in ChIP were BRD4 (Bethyl #A301-985A) and RNA Polymerase II (Santa Cruz N-20, sc-899).

Series [3] can be described thus: Conscious tail-vein systolic blood pressure in mice. The format is in vivo, mouse. To be noted: JQ1 50 mg/kg/day IP, 17 days. The source says: For transthoracic echocardiography, mice were anesthetized with 1% inhalational isofluorane and imaged using the Vevo 770 High Resolution Imaging System (Visual Sonics, Inc.) and the RMV-707B 30 MHz probe. Measurements were obtained from M-mode sampling and integrated EKV images taken in the LV short axis at the mid-papillary level (Haldar et al., 2010). Measurements of pressure gradients across the constricted portion of the aorta were obtained by high frequency Doppler as previously described (Liu et al., 2012). Conscious tail-vein systolic blood pressure was measured using the BP2000 Blood Pressure Analysis System (Visitech Systems, Inc.) as recommended by the manufacturer. To allow mice to adapt to the apparatus, we performed daily blood pressure measurements for one week prior to beginning experiments. Treadmill endurance exercise testing was performed on a motorized mouse treadmill (Columbus Instruments) as previously described (Haldar et al., 2012).

Series [4] deals with NRVM. Briefly: PE-mediated pathologic gene induction in NRVM (qRT-PCR, gene expression profiling). The format is cell-based, rat. As for the experimental part: NRVM were isolated from the hearts of 2 day old Sprague-Dawley rat pups (Charles River) and maintained under standard conditions as described (Haldar et al., 2010). The cells were differentially plated for 1.5 h in cell culture dishes to remove contaminating non-myocytes. Unless otherwise stated, NRVM were plated at a density of 10^5 cells/mL. Cells were initially plated in growth medium (DMEM supplemented with 5% FBS, 100 U/mL penicillin-streptomycin, and 2 mM L-glutamine) for 24-36 hours and maintained in serum-free media thereafter (DMEM supplemented with 0.1% BSA, 1% insulin-transferrin-selenium liquid media supplement (Sigma 13146), 100 U/mL penicillin-streptomycin, and 2 mM L-glutamine). Media was changed every 2-3 days. Prior to stimulation with agonists, NRVM were maintained in serum-free medium for 48-72 hours. For hypertrophic stimulation, NRVM were incubated with JQ1 versus DMSO at indicated concentrations for 6 h followed by stimulation with PE (100 μM) for indicated timepoints.
For tissue RNA, a 10-20 mg piece of mouse heart tissue was preserved in RNA Later stabilization reagent (Qiagen) followed by mechanical disruption/homogenization in PureZOL (BioRad) on a TissueLyser (Qiagen) using stainless steel beads (Qiagen). The aqueous phase was extracted with chloroform. RNA was purified from the aqueous phase using the Aurum purification kit (BioRad #732-6830) following manufacturer's instructions. For cellular samples, total RNA from NRVM was isolated using the High Pure RNA isolation kit (Roche #11828665001) with on-column DNAase treatment according to manufacturer's directions. Purified RNA was reverse transcribed to complementary DNA using the iScript™ RT Supermix (Biorad #170-8841) following manufacturer's protocol. Quantitative real-time PCR was performed using TaqMan chemistry (Fast Start Universal Probe Master (Roche cat#4914058001) and labeled probes from the Roche Universal Probe Library System) on a Roche LightCycler. Relative expression was calculated using the AACt-method with normalization to constitutive genes as indicated.
To determine the transcriptional effects of BET bromodomain inhibition during hypertrophic transformation, gene expression profiling (GEP) studies were performed in cultured NRVM at baseline and after PE stimulation (1.5, 6, 48 h) in the presence or absence of JQ1. These three timepoints were assessed to capture induction of early response genes such as c-Myc (Starksen et al., 1986) and the final hypertrophic gene program. […] A heat map of genes selected based on the highest magnitude of PE-mediated changes illustrates each of these clusters (FIG. 3A). […]

For series [5], the system named is mice subject to TAC. Briefly: TAC model with pre-established pathology, JQ1 begun day 18 post-TAC. The format is in vivo, mouse. An excerpt: Adult mice were subjected to pressure overload using transverse aortic constriction (TAC). JQ1 or vehicle was begun on day 18 post-TAC, a time point when significant pathology has already developed (FIG. 11). […] (N=6-12 per group). […] For example, patients typically present with pre-existing or established cardiac hypertrophy and/or heart failure.

With `Cc1sc2c(c1C)C(c1ccc(Cl)cc1)=N[C@@H](CC(=O)OC(C)(C)C)c1nnc(C)n1-2` [JQ1], in series [1], the “LV systolic function during chronic PE infusion” value is “without any compromise” and the “development of pathologic cardiac hypertrophy during chronic PE infusion” value is reported as “potently suppressed”. Further, the “recruitment of endogenous BRD4 and Pol II to the proximal promoter of IL6 in response to PE” value in series [2] is “blocked this recruitment”. Also, in series [3], the systemic blood pressure result was “does not affect”. The “PE-mediated gene induction, global gene expression profiling” value in series [4] (500 nM JQ1, 100 μM PE, 1.5, 6, 48 h) is listed as “attenuate or completely abrogate”. Besides, in series [4] (JQ1 500 nM, PE 100 μM), the “PE-mediated c-myc induction (qRT-PCR)” value was “does not suppress” and the “PE-mediated induction of IL6 (qRT-PCR)” value is listed as “significantly attenuated”. The “PE mediated pathologic gene induction (hypertrophic marker genes, qRT-PCR)” value in series [4] (JQ1 500 nM, PE 100 μM, 48 h) is on record as “significantly blocked”. Moreover, in series [5], the “progression of LV cavity dilation” value is on record as “significantly attenuates”, the “progression of LV systolic dysfunction” value is reported as “significantly attenuates”, the “progression of LV wall thickening” value was “significantly attenuates” and the progression of cardiomegaly entry is listed as “significantly attenuates”.
